According to patent US9320271B2, “Microbial composition” (Rohm and Haas Company, priority 2011, dated 2016):
Values joined by “and” are separate entries in the source; they are usually repeats but may differ in a detail not shown here. Identical values can stand only once.

Tests used:
[1] = system: Staphylococcus aureus (10788 strain); assay: 15 second contact kill test / antimicrobial efficacy of actives against S. aureus in water; type: cell-based
Description: Selected materials were also tested against a representative Grant positive Staphylococcus aureus. An overnight culture of Staphylococcus aureus (10788 strain) was inoculated onto a […] Soy Agar (TSA) plate and grown for ca. 18 hrs at 37° C. The culture S. aureus was washed from the plate using sterile saline (0.85% NaCl) solution and a sterile spreader and suspended in 50 ml saline. This suspension was separated into equal volumes and centrifuged at 4000 rpm for 15 minutes. […] Here, OD620 indicates the absorbance of a sample in a cuvette of 1.0 cm path length at a wavelength of 620 nm. This bacterial stock was used for assaying against antimicrobial actives (in triplicate). The following assay describes the testing of 8 materials using 6 dilutions across half of a 96-well micro titre plate (MTP). Using this approach it is possible to assay 16 actives (without replicates) with one full dilution plate, replicating this set up in two halves of the plate columns, 1-6 and 7-12. 1M solutions of the test actives were prepared in dimethylsulphoxide (DMSO). […] Aliquots (270 μl) of the materials at 1.11 times the final concentration were dispensed into the wells of the MTP along one column (A1-H1). This MTP was labelled as the “Screening plate”. In another MTP, labelled as the “Dilution plate”, […] of D/E neutralising solution from DIFCO Composition was added to column 1. The composition of the neutralising solution was as follows: pancreatic digest of casein, 5.0 g/L; […] Dextrose, 10 g/L, sodium thioglycollate, 1.0 g/L, sodium thiosulphate, 6.0 g/L; sodium bisulphite, 2.5 g/L; […] […] From the colony number in this segment, NMBS is calculated by the formula: NMBS=log {Ncol·10^DF·100/3} Here, Ncol is the colony count, and DF is the dilution factor taken from the MTP-well corresponding to the TSA plate segment (i.e. DF may range from 1 for the quench, to 6 for the highest dilution). […] Here, OD620 indicates the absorbance of a sample in a cuvette of 1.0 cm path length at a wavelength, of 620 nm. […]

[2] = system: Escherichia coli (E. coli—ATCC #10536); assay: Synergy test: high resolution MBC microtiter plate assay, phosphate buffer containing 35% dipropylene glycol, 15 seconds contact; type: cell-based; details: E. coli 10536
Source text: The concentrations and ratios may also vary under different test conditions or with different test methods.
One measure of synergy is the industrially accepted method described by Kull, F. C.; Eisman, P. C.; Sylwestrowicz, H. D, and Mayer, R. L., in Applied Microbiology 9:538-541 (1961), using the ratio determined by the formula: […]=Synergy Index (“SI”) wherein; QA=concentration of compound A (first component) in percent, acting alone, which produced an end point (MBC of Compound A). Qa=concentration of compound A in percent, in the mixture, which produced an end point. QB=concentration of compound B (second component) in percent, acting alone, which, produced an end point (MBC of Compound B). Qb=concentration of compound B in percent, in the mixture, which produced an end point.
When the sum of Qa/QA and Qb/QB is greater than one, antagonism is indicated. […] The lower the SI, the greater is the synergy shown by that particular mixture. The minimum biocidal concentration (MBC) of a microbicide is the lowest concentration tested under a specific set of conditions that provides complete kill of the tested microorganisms.
Synergy tests were conducted using standard microliter plate assays with phosphate buffer containing 35% dipropylene glycol (DPG). In this method, a wide range of combinations of chemicals was tested by conducting high resolution MBC assays of Component (A) in the presence of various concentrations of Component (B). High resolution MBCs were determined by adding varying amounts of microbicide to one column of a microliter plate and doing subsequent […] dilutions using an automated liquid handling, system to obtain a series of closely spaced endpoints. The MBC plate was inoculated one column at a time with the test microorganism. An aliquot of the inoculated well was transferred at 15 seconds to a plate containing a neutralizing agent (D/E Neutralizing Broth), mixed and held for 5 minutes before being transferred to a growth plate containing trypticase soy broth (TSB). The TSB plate was incubated at 37° C. and read for the presence/absence of growth at 24 hours. The lowest level tested that provided complete kill (as evidenced by no growth in the microtitre plate) of the test organisms in 15 seconds is the minimum biocidal concentration (MBC).
The synergy of the combinations of the present invention was determined against a bacterium, Escherichia coli (E. coli—ATCC #10536), at a concentration of approximately 1×10^8 it bacteria per mL. This microorganism is representative of natural contaminants in many consumer and industrial applications.

C=C(C)C1CC=C(CO)CC1 (stereo not shown) [(4-(prop-1-en-2-yl)cyclohex-1-enyl)methanol]
S. aureus 6538 Log Reduction ([1]; 0.2% perillyl alcohol alone): 0.22
S. aureus 6538 Log Reduction ([1]; 0.25 Perillyl alcohol alone): 0.5
SI (Synergy Index) ([2]; at Qa and Qb, less than one = synergy): 1.00
MBC of the component acting alone (QA / QB; Qa or Qb where the other component is 0) ([2]; complete kill in 15 seconds, component alone): 0.5 weight % and 0.3 weight %
